Test results taken from patent US20110110886A1, “SMALL MOLECULE INHIBITORS OF AUTOTAXIN AND METHODS OF USE” (Yale University, priority 2008, published 2011).
Where “and” joins values, the source holds several entries; their conditions need not be identical. Identical values can stand only once. Like-named read-outs stand apart in the source and are kept apart here.

How the values were obtained:
[1] = molecular target: T1, ATX (recombinant full-length human ATX), lysoPLD activity (Homo sapiens, UniProt Q13822); experiment: Steady-state ATX lysoPLD activity with fluorescent LPC analogue FS-3; format: biochemical; settings: for inhibition of ATX lysoPLD activity by GenPlus screen inhibitor analogs / type of inhibition of ATX lysoPLD activity: substrate FS-3; for Ki: substrate FS-3, 37° C.
T1 construct: consistent with a mature, glycosylated form of the enzyme; TEV cleavage site (C); 9-His (C); 6-His (C); made in house; host or cells: High Five insect cells (baculovirus, p-DEST-8)
Procedure: Protein expression and purification: The full length human NPP2 gene (NCBI accession #BC034961) followed by a C-terminal TEV cleavage site and a 9-His and 6-His purification tag was cloned and transferred into a p-DEST-8 baculovirus shuttle vector (Invitrogen), and bacmid DNA was generated by standard methods. […] Three days post infection, the supernatant was adjusted to a final concentration of 50 mM Tris pH 8.0, 5 mM CaCl2, and 1 mM NiSO4 and stirred for 10 min. at room temperature. […] Purified ATX was concentrated to approximately 10 mg mL^−1, and dialyzed into the appropriate assay buffer.
Fluorescence was measured (λex=485 nm, λem=520 nm) on a SpectraMax Gemini XPS at 37° C. under buffer conditions similar to the PDE assays but lacking BSA. […] The spontaneous reaction rates were subtracted from the enzyme catalyzed rates.
The steady-state rates (v) of product formation were obtained by fitting the time courses of absorbance or fluorescence change to linear functions. […] FS-3 hydrolysis product formation was quantitated in arbitrary fluorescence units.
(§1) The Michaelis constants (KM) and the catalytic turnover rate constants (kcat) were obtained by fitting the [substrate]-dependence of v to a rectangular hyperbola in the form of the Briggs-Haldane equation: […]
(§2) in which [S] is [pNP-TMP] or [FS-3]. Inhibitors were treated as reversible inhibitors and analyzed according to the general steady-state linear enzyme inhibitor scheme:
(§3) in which E is ATX, S is pNP-TMP or FS-3 substrate, P are the hydrolysis products, and K1 is the dissociation equilibrium constant for inhibitor binding. The values of α and K1 were obtained by fitting the steady-state rates of product formation (v) to the general inhibition equation: […]
(§4) in which [I] is the inhibitor concentration, kcat is the maximum catalytic turnover rate, and KS is the Michaelis constant of the substrate obtained in the absence of inhibitor.
(§5) The type of inhibition (competitive, noncompetitive, or uncompetitive) depends on the value of α.
(§6) The type of inhibition was assigned if the difference between the r^2 values of the fits to the general inhibition equation (Eq 2) and the specific inhibition (i.e. competitive, noncompetitive or uncompetitive) equations was less than 0.01.

[2] = molecular target: T2, ATX (recombinant full-length human ATX), PDE activity (Homo sapiens, UniProt Q13822); experiment: Steady-state ATX phosphodiesterase (PDE) activity with pNP-TMP, absorbance 405 nm; format: biochemical; settings: for Ki: 25° C., read-out: KI (dissociation equilibrium constant for inhibitor binding), ATX PDE activity
T2 construct: consistent with a mature, glycosylated form of the enzyme; TEV cleavage site (C); 9-His (C); 6-His (C); made in house; host or cells: High Five insect cells (baculovirus, p-DEST-8)
Description: Protein expression and purification: The full length human NPP2 gene (NCBI accession #BC034961) followed by a C-terminal TEV cleavage site and a 9-His and 6-His purification tag was cloned and transferred into a p-DEST-8 baculovirus shuttle vector (Invitrogen), and bacmid DNA was generated by standard methods. The DNA sequence and correct transposition of the genes was verified by PCR, and recombinant full-length human ATX was expressed in High Five insect cells using standard methods. Three days post infection, the supernatant was adjusted to a final concentration of 50 mM Tris pH 8.0, 5 mM CaCl2, and 1 mM NiSO4 and stirred for 10 min. at room temperature. The resulting precipitant was removed by centrifugation (4,420×g for 30 minutes) and filtration ([…]), and the supernatant was concentrated using a Pall concentration system to approximately 250 mL. The cell media was passed over a nickel affinity column (5 mL, Fastflow resin), equilibrated in binding buffer (20 mM Tris pH 8.0, 300 mM NaCl, 20 mM imidazole, and 20% ethylene glycol) at 4° C., washed with 10 column volumes of binding buffer, and then eluted with binding buffer supplemented with 300 mM imidazole. Purified ATX was concentrated to approximately 10 mg mL^−1, and dialyzed into the appropriate assay buffer.
Steady-state enzyme assays: Phosphodiesterase activity of ATX (75-100 nM) was measured by absorbance (λ=405 nm) on a SpectraMax 250 plate reader at 25° C. with the substrate pNP-TMP [36]. Reactions were run in assay buffer containing 10% DMSO (v/v) and 1 mg mL^−1 BSA (hexachlorophene, merbromin, and bithionol) or without BSA (NSC 48300, 2,2′-Methylenebis(4-chlorophenol), eosin Y, and RJC 03297) in a total volume of […]. The uncatalyzed reaction rate was ≦10^−7 s^−1 (data not shown).
The steady-state rates (v) of product formation were obtained by fitting the time courses of absorbance or fluorescence change to linear functions. Absorbance units were converted to p-nitrophenylate concentration using ε405 of 18.5 mM^−1 cm^−1 [39] and a measured path length of 0.494 cm. FS-3 hydrolysis product formation was quantitated in arbitrary fluorescence units.
as §1, §2, §3, §4, §5, §6

[3] = tested on: adenocarcinoma cell motility; settings: reported in ref. [40]; read-out: EC50, inhibition of adenocarcinoma cell motility; cited from earlier work
[4] = tested on: human melanoma cell line (A2058); experiment: Boyden chamber cell migration assay, melanoma cells; format: cell-based; settings: for inhibition of ATX-induced stimulation of melanoma cell motility: A2058, 50 nM ATX, 4 hours
Procedure: (§7) All cell media was supplemented with 10% (v/v) fetal calf serum (FCS) (Gibco) and 1% (v/v) L-glutamine (Gibco) and grown at 37° C. in a humidified atmosphere containing 5% CO2.
The assay chambers are divided by a gelatin-coated membrane with […] pores (NeuroProbe). […] The chambers were then incubated at 37° C. for 4 hours, after which the filters were removed, fixed in 100% methanol, stained with a DiffQuick solution, and mounted onto glass slides. Non-migrating cells were removed from the membrane by scraping the top surface. The cells were quantitated by counting the cell number per high powered field in the various wells. Treatments were compared using a chi squared test.

A2058 melanoma cells = experiment: Matrigel cell invasion assay, melanoma cells; format: cell-based, human; settings: for inhibition of ATX-induced stimulation of melanoma cell invasion: A2058, 50 nM ATX
Procedure: as §7
Cell invasion assays: Matrigel matrix (1 mg/ml, Becton Dickenson) was added to […] gelatin-coated membranes placed in cell culture inserts (BD Falcon) and allowed to set for 24 hours at room temperature. The inserts were placed into companion 24 well plates (BD Falcon), and chemo-attractants (ATX ±inhibitors) and/or controls were added to the bottom of the wells. Cells (1×10^6) were added to the inserts and incubated for 3 hours at 37° C. Following incubation, the inserts were removed, fixed in 100% methanol, stained with DiffQuick solution, and mounted on glass slides. Non-invading cells were removed by scraping away the matrigel, and migrating cells were quantitated by counting cell number per high-powered field.

ATX lyso-PLD activity = molecular target: T3, ATX lyso-PLD activity (Homo sapiens, UniProt Q13822); experiment: Time course assay of ATX lyso-PLD activity (FS-3 fluorescent product) with or without 10 μM compound over 30 minutes; format: biochemical; settings: 10 μM inhibitor, 30 minute interval, compared with NSC 48300
T3 construct: consistent with a mature, glycosylated form of the enzyme; TEV cleavage site (C); 9-His (C); 6-His (C); made in house; host or cells: High Five insect cells (baculovirus, p-DEST-8)
Procedure: C. Structure of hexachlorophene, merbromin. Bithionol and their analogs -2,2′-Methylenebis(4-chlorophenol), Eosin Y and RJC 03297, respectively. D. Structure of NSC 48300 and its analogs. […] The assay conditions are 300 nM ATX in the presence or absence of 10 μM compound over 30 minutes.
Inhibitor screen: High throughput screens were performed against two libraries: the GenPlus library of 960 compounds (NINDS Custom Collection, MicroSource Discovery systems) and the NCI Diversity Set (1990 compounds, see http://dtp.nci.nih.gov/branches/dscb/repo_open.html). The screens were performed at the Yale Center for Chemical Genomics utilizing a Tecan Aquarius robot in combination with an Aquarius liquid handler and a Freedom EVO Workstation. A V&P Scientific 384 pin tool transferred small molecules (10 mM stock) from library plates into the optically clear, 384 well assay plates, and an Aquarius liquid handling robot transferred protein into the individual wells. The assays were performed in a total volume of 50 μL in assay buffer (50 mM Tris, 140 mM NaCl, 1 mM MgCl2, and 5 mM CaCl2, pH 8.0). Absorbance of p-nitrophenylate, the product of ATX's PDE activity with pNP-TMP (discussed below) was measured at 405 nm over a period of 12 hours. To monitor lysophospholipase-D activity, the fluorescence of FS-3 (625 nM or 4 μM) was monitored (λex=480 nm, λem=535 nm) in assay buffer over a period of 30 minutes in the presence of 300 nM ATX and 10 μM compound. The assay was evaluated using a statistical Z′ analysis, a quantitative measure to determine assay robustness for single point analysis on a high throughput screening platform. The Z′ analysis was performed from 32 maximum control values (c+) and 32 minimum controls (c−) on each plate. Assays consistently performed with Z′ factors of 0.75-0.85, higher than the minimum 0.5 considered robust.
Inhibition of ATX lyso-PLD activity by several NSC48300 analogs was qualitatively compared in a time course assay by measuring the production of fluorescent product in the presence or absence of 10 µM inhibitor over a 30 minute interval.

[5] = ATX-dependent hydrolysis, fit to Eq. 1

## Oc1ccc(Cl)cc1Cc1cc(Cl)ccc1O [2,2′-Methylenebis(4-chlorophenol)]
[1]
  inhibition of ATX lysoPLD activity by GenPlus screen inhibitor analogs: only Eosin Y (an analogue of merbromin) inhibits ATX lysoPLD activity
[2]; substrate pNP-TMP
  type of inhibition of ATX PDE activity: noncompetitively
  Ki: 104 µM

## Cc1ccc2c(c1)C(=O)C1(O)CCN(c3ccccc3)C1=N2 (stereo not shown) [Blebbistatin]
[3]
  EC50: ~50 µM
[4]; A2058, 75 nM LPA, read-out: EC50, inhibition of cell motility with addition of LPA
  EC50: 27 µM
[4]; A2058, in the presence of 50 nM ATX, read-out: EC50, inhibition of ATX-induced cell motility
  EC50: 54 µM

## O=C1OC2(c3ccccc31)c1cc(Br)c(O)c(Br)c1Oc1c2cc(Br)c(O)c1Br [Eosin Y]
[1]
  inhibition of ATX lysoPLD activity by GenPlus screen inhibitor analogs: inhibits ATX lysoPLD activity
  type of inhibition of ATX lysoPLD activity: noncompetitive
  Ki: 116 µM
[2]; substrate pNP-TMP
  type of inhibition of ATX PDE activity: competitively
  Ki: 9.6 µM

## Oc1c(Cl)cc(Cl)c(Cl)c1Cc1c(O)c(Cl)cc(Cl)c1Cl [Hexachlorophene]
A2058 melanoma cells
  inhibition of ATX-induced stimulation of melanoma cell invasion: inhibited in a dose-dependent manner
[1]
  type of inhibition of ATX lysoPLD activity: competitive inhibitor
  Ki: 68 µM
[2]; substrate pNP-TMP
  type of inhibition of ATX PDE activity: competitive inhibition
  α value from general steady-state inhibition equation (Eq. 2): > 45
  Ki: 15 µM
[4]
  inhibition of ATX-induced stimulation of melanoma cell motility: inhibited in a dose-dependent manner

## O=C([O-])c1ccccc1-c1c2cc(Br)c(=O)cc-2oc2[c]([Hg+])c([O-])c(Br)cc12.[Na+].[Na+].[OH-] [Merbromin]
A2058 melanoma cells
  inhibition of ATX-induced stimulation of melanoma cell invasion: inhibited in a dose-dependent manner
[2]; substrate pNP-TMP
  type of inhibition of ATX PDE activity: noncompetitive inhibition
  Ki: 43 µM
[4]
  inhibition of ATX-induced stimulation of melanoma cell motility: inhibited in a dose-dependent manner

## O=[As](O)(O)c1ccc(-c2ccc([As](=O)(O)O)cc2)cc1 [NSC 13792]
ATX lyso-PLD activity
  qualitative effect of structural change on inhibition of ATX lyso-PLD activity: eliminates inhibition

## COC(=O)c1ccc(Cc2ccc(C(=O)OC)cc2)cc1 [NSC 86629]
ATX lyso-PLD activity
  qualitative effect of structural change on inhibition of ATX lyso-PLD activity: eliminates inhibition

## Cc1cn([C@H]2C[C@H](O)[C@@H](COP(=O)(O)Oc3ccc([N+](=O)[O-])cc3)O2)c(=O)[nH]c1=O [pNP-TMP, p-Nitrophenyl 5′-thymidine monophosphate]
[2]; [5]
  Km: 1400 µM
  kcat for pNP-TMP hydrolysis: 1.6 s^−1 and 1.6 (±0.1) s^−1

## Fluorescent Substrate-3 [FS-3]
[1]; [5]
  Km: 4.5 µM

## lysophosphatidic acid [LPA]
A2058 melanoma cells; A2058, ATX (50 nM) or LPA (75 nM)
  increase in number of invading cells per hpf: 3.5 fold
